Data as given in patent publication US8795707B2, “Compliant composites for application of drug-eluting coatings to tissue surfaces” (Trustees of Boston University, priority 2008, dated 2014).

Tests used:
tumor = settings: pouch sutured subcutaneously, loaded three days after tumor inoculation; 30 day observation period; cited from earlier work
[1] = Release of 10-hydroxycamptothecin from polymer-collagen composites; format: physicochemical; settings: PBS at 37° C.
Experimental: Using the procedures from Example 2, a composite was constructed from a collagen-based scaffold with a poly(caprolactone) barrier layer and two 10-hydroxycaptothecin-loaded (2% w/w) poly(glycerol monostearate) layers. The composites were submerged in 0.150 mL of PBS at 37° C. At specific time points, an aliquot of release media was removed and the concentration of HCPT was measured by fluorescence spectroscopy (λEx=382 nm and λEm=550 nm, Photon Technology International QM-4/2005 spectrofluorimeter). A calibration curve was constructed from nine samples of known HCPT concentrations with linearity observed from 10 nM to 5 μM (R^2=0.999) from which the drug concentration of each aliquot was determined. After the completion of release, the HCPT remaining in each film was quantified. Films were dissolved CH2Cl2 to release encapsulated drug, the solvent evaporated, and PBS (150 mL) was added under rigorous stirring. The fluorescence spectrum was recorded and remaining drug measured.

[2] = tested on: 4T1 metastatic mammary mouse tumor cells; settings: implants co-implanted with 4T1 cells; cited from earlier work

For Nc1ccn([C@@H]2O[C@H](CO)[C@@H](O)C2(F)F)c(=O)n1 [gemcitabine], the “mice with no observable tumor mass” value (tumor) is listed as “Four of six”.

In the case of CC[C@@]1(O)C(=O)OCc2c1cc1n(c2=O)Cc2cc3cc(O)ccc3nc2-1 [10-hydroxycamptothecin], the “HCPT released over the first 24 hours” value ([1]; collagen scaffold, poly(caprolactone) barrier, two 2% w/w HCPT layers) is reported as “about 10%”, the “HCPT release rate after the first five weeks” value ([1]; same composite) is reported as 0.5 % release per day and the “HCPT release rate, first two weeks” value ([1]; same composite) is reported as 2 % loading per day. The “HCPT release rate, following three weeks” value ([1]; same composite) was “approximately 1 % per day” and the “duration of continued release detected” value ([1]; same composite) was “at least 6 weeks”.

For CC(C)CCCC(C)C1CCC2C3CC(C[131I])C4=C(CCC(O)C4)C3CCC12C (stereo not shown) [^131I-norcholesterol], the “mice in which tumor growth was prevented” value [2] is listed as 69%.
